According to US20230119355A1, “PHARMACEUTICAL COMPOSITIONS OF A KINASE INHIBITOR” (AURIGENE DISCOVERY TECHNOLOGIES LIMITED, priority 2020, published 2023):
Structures can show the parent of a compound that is named as a salt. Where two headings read alike, the source gives them in different places.

Tests used:
[1] = Water solubility / ionisation at physiological pH; assay type: physicochemical
[2] = Bioavailability after oral administration; assay type: in vivo

| Compound | water solubility of the salt form ([1]; hydrochloride salt forms compared with compound (I)) | bioavailability after oral administration ([2]; listed as Hydrochloride salt forms of compound (I)) | solubility in water ([1]; physiological pH range) | ionisation state ([1]; within the physiological pH range) | bioavailability after oral administration [2] |
| --- | --- | --- | --- | --- | --- |
| Cn1cc(-c2ccc3c(c2)ncn3-c2cc(NS(=O)(=O)C3CC3)cc(-c3ccc(F)cc3F)c2)cn1 [Compound (I) HCl salt, hydrochloride salt of N-(2′,4′-difluoro-5-(5-(1-methyl-1H-pyrazol-4-yl)-1H-benzo[d]imidazol-1-yl)-[1,1′-biphenyl]-3-yl)cyclopropanesulfonamide] | enhanced | improved |  |  |  |
| Cn1cc(-c2ccc3c(c2)ncn3-c2cc(NS(=O)(=O)C3CC3)cc(-c3ccc(F)cc3F)c2)cn1 [Compound (I), N-(2′,4′-difluoro-5-(5-(1-methyl-1H-pyrazol-4-yl)-1H-benzo[d]imidazol-1-yl)-[1,1′-biphenyl]-3-yl)cyclopropanesulfonamide] |  |  | practically insoluble | neutral | very low |
